Tests used:
DU-145 = assay: Inhibition of cells growth by colorimetric (SRB) assay, DU-145; conditions: for GI50 / CC50: Homo sapiens, DU-145, 48 h; for GI50: read-out: GI50 DU-145, SRB assay, 48 hours exposure; for CC50: read-out: LC50 DU-145, SRB assay, 48 hours exposure; for TGI DU-145: SRB assay, 48 hours exposure
Procedure, shortened: (§1)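 Read-out is sulforhodamine B protein stain (OD 490 nm) after cold TCA fixation, following 48 h continuous exposure to samples spanning 10 to 10^−8 μg/ml.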

A-549 = assay: Inhibition of cells growth by colorimetric (SRB) assay, A-549; conditions: for GI50 / CC50: Homo sapiens, A549, 48 h; for GI50: read-out: GI50 A-549, SRB assay, 48 hours exposure; for CC50: read-out: LC50 A-549, SRB assay, 48 hours exposure; for TGI A-549: SRB assay, 48 hours exposure
Procedure, shortened: as §1

[1] = Inhibition of cells growth by colorimetric (SRB) assay, HMEC1; conditions: human, HMEC1 cells, LC50 H-MEC-1, SRB assay, 48 hours exposure
HMEC1 = assay: as above; conditions: for GI50: Homo sapiens, HMEC-1, 48 h, read-out: GI50 H-MEC-1, SRB assay, 48 hours exposure; for TGI H-MEC-1: SRB assay, 48 hours exposure, in M (unit assumed)
SK-MEL-28 = assay: Inhibition of cells growth by colorimetric (SRB) assay, SK-MEL-28; conditions: for GI50 / CC50: Homo sapiens, SK-MEL-28, 48 h; for GI50: read-out: GI50 MEL-28, SRB assay, 48 hours exposure; for CC50: read-out: LC50 MEL-28, SRB assay, 48 hours exposure; for TGI MEL-28: SRB assay, 48 hours exposure
Procedure, shortened: as §1

LNCaP = assay: Inhibition of cells growth by colorimetric (SRB) assay, LNCaP; conditions: for GI50 / CC50: Homo sapiens, LNCaP, 48 h; for GI50: read-out: GI50 LN-caP, SRB assay, 48 hours exposure; for CC50: read-out: LC50 LN-caP, SRB assay, 48 hours exposure; for TGI LN-caP: SRB assay, 48 hours exposure
Procedure, shortened: as §1

IGROV-ET = assay: Inhibition of cells growth by colorimetric (SRB) assay, IGROV-ET; conditions: for GI50 / CC50: Homo sapiens, 48 h; for GI50: read-out: GI50 IGROV-ET, SRB assay, 48 hours exposure; for CC50: read-out: LC50 IGROV-ET, SRB assay, 48 hours exposure; for TGI IGROV-ET: SRB assay, 48 hours exposure
Procedure, shortened: as §1

LoVo-Dox = assay: Inhibition of cells growth by colorimetric (SRB) assay, LoVo-Dox; conditions: for GI50 / CC50: Homo sapiens, 48 h; for GI50: read-out: GI50 LOVO-DOX, SRB assay, 48 hours exposure; for CC50: read-out: LC50 LOVO-DOX, SRB assay, 48 hours exposure; for TGI LOVO-DOX: SRB assay, 48 hours exposure
Procedure, shortened: as §1

IGROV-1 = assay: Inhibition of cells growth by colorimetric (SRB) assay, IGROV-1; conditions: for GI50 / CC50: Homo sapiens, IGROV-1, 48 h; for GI50: read-out: GI50 IGROV, SRB assay, 48 hours exposure; for CC50: read-out: LC50 IGROV, SRB assay, 48 hours exposure; for TGI IGROV: SRB assay, 48 hours exposure
Procedure, shortened: as §1

SK-OV-3 = assay: Inhibition of cells growth by colorimetric (SRB) assay, SK-OV-3; conditions: for GI50 / CC50: Homo sapiens, SK-OV-3, 48 h; for GI50: read-out: GI50 SKOV-3, SRB assay, 48 hours exposure; for CC50: read-out: LC50 SKOV-3, SRB assay, 48 hours exposure; for TGI SKOV-3: SRB assay, 48 hours exposure
Procedure, shortened: as §1

PANC-1 = assay: Inhibition of cells growth by colorimetric (SRB) assay, PANC-1; conditions: for GI50 / CC50: Homo sapiens, PANC-1, 48 h; for GI50: read-out: GI50 PANC-1, SRB assay, 48 hours exposure; for CC50: read-out: LC50 PANC-1, SRB assay, 48 hours exposure; for TGI PANC-1: SRB assay, 48 hours exposure
Procedure, shortened: as §1

HT-29 = assay: Inhibition of cells growth by colorimetric (SRB) assay, HT-29; conditions: for GI50 / CC50: Homo sapiens, HT-29, 48 h; for GI50: read-out: GI50 HT-29, SRB assay, 48 hours exposure; for CC50: read-out: LC50 HT-29, SRB assay, 48 hours exposure; for TGI HT-29: SRB assay, 48 hours exposure
Procedure, shortened: as §1

K-562 = assay: Inhibition of cells growth by colorimetric (SRB) assay, K-562; conditions: for GI50 / CC50: Homo sapiens, K562, 48 h; for GI50: read-out: GI50 K-562, SRB assay, 48 hours exposure; for CC50: read-out: LC50 K-562, SRB assay, 48 hours exposure; for TGI K-562: SRB assay, 48 hours exposure
Procedure, shortened: as §1

LoVo = assay: Inhibition of cells growth by colorimetric (SRB) assay, LoVo; conditions: for GI50 / CC50: Homo sapiens, LoVo, 48 h; for GI50: read-out: GI50 LOVO, SRB assay, 48 hours exposure; for CC50: read-out: LC50 LOVO, SRB assay, 48 hours exposure; for TGI LOVO: SRB assay, 48 hours exposure
Procedure, shortened: as §1

SK-BR-3 = assay: Inhibition of cells growth by colorimetric (SRB) assay, SK-BR-3; conditions: for GI50 / CC50: Homo sapiens, SK-BR-3, 48 h; for GI50: read-out: GI50 SK-BR-3, SRB assay, 48 hours exposure; for CC50: read-out: LC50 SK-BR-3, SRB assay, 48 hours exposure; for TGI SK-BR-3: SRB assay, 48 hours exposure
Procedure, shortened: as §1

Q: Which results are given for `C[S+]([O-])c1nccc(-c2c3c(Cl)ccnc3n3c(N)nccc23)n1` (stereo not drawn) [Compound 110]?
A: GI50 (DU-145): 2.03 µM; CC50 (DU-145): ≥ 27.9 µM; TGI DU-145 (DU-145): 8.97E−06; GI50 (A-549): 11 µM; CC50 (A-549): ≥ 27.9 µM; TGI A-549 (A-549): 2.79E−05; CC50 at 48 h [1]: ≥ 27.9 µM; GI50 (HMEC1): 1.7 µM; TGI H-MEC-1 (HMEC1): 1.08E−05; GI50 (SK-MEL-28): 5.55 µM; CC50 (SK-MEL-28): ≥ 27.9 µM; TGI MEL-28 (SK-MEL-28): 2.79E−05; GI50 (LNCaP): 1.45 µM; CC50 (LNCaP): 16.7 µM; TGI LN-caP (LNCaP): 4.71E−06; GI50 (IGROV-ET): 10.9 µM; CC50 (IGROV-ET): ≥ 27.9 µM; TGI IGROV-ET (IGROV-ET): 2.79E−05; GI50 (LoVo-Dox): 2.04 µM; CC50 (LoVo-Dox): ≥ 27.9 µM; TGI LOVO-DOX (LoVo-Dox): 1.21E−05; GI50 (IGROV-1): 14.3 µM; CC50 (IGROV-1): ≥ 27.9 µM; TGI IGROV (IGROV-1): 2.79E−05; GI50 (SK-OV-3): 11.9 µM; CC50 (SK-OV-3): ≥ 27.9 µM; TGI SKOV-3 (SK-OV-3): 2.79E−05; GI50 (PANC-1): 14.5 µM; CC50 (PANC-1): ≥ 27.9 µM; TGI PANC-1 (PANC-1): 2.79E−05; GI50 (HT-29): 4.15 µM; CC50 (HT-29): ≥ 27.9 µM; TGI HT-29 (HT-29): 2.79E−05; GI50 (K-562): 9.92 µM; CC50 (K-562): ≥ 27.9 µM; TGI K-562 (K-562): 2.79E−05; GI50 (LoVo): 1.38 µM; CC50 (LoVo): ≥ 27.9 µM; TGI LOVO (LoVo): 6.21E−06; GI50 (SK-BR-3): 0.92 µM; CC50 (SK-BR-3): 11.6 µM; TGI SK-BR-3 (SK-BR-3): 1.98E−06

Q: For `CS(=O)(=O)c1nccc(-c2c3c(Cl)ccnc3n3c(N)nccc23)n1` [Compound 111], which GI50 (DU-145) is on record?
A: Its GI50 is 1.94 µM.

Q: What about the CC50 (DU-145) of the same molecule?
A: The CC50 was 16.8 µM.

Q: And the “TGI DU-145” value (DU-145)?
A: The value was 6.40E−06.

Q: What about the GI50 (A-549) of the same molecule?
A: Its GI50 is 4.35 µM.

Q: And the CC50 (A-549)?
A: The CC50 was 26.7 µM.

Q: And the “TGI A-549” value (A-549)?
A: Its value is 1.30E−05.

Q: And the CC50 at 48 h [1]?
A: Its CC50 at 48 h is 0.603 µM.

Q: What about the GI50 (HMEC1) of the same molecule?
A: Its GI50 is 0.00108 µM.

Q: And the “TGI H-MEC-1” value (HMEC1)?
A: The value was 1.53E−08.

Q: What about the GI50 (SK-MEL-28) of the same molecule?
A: The GI50 was 1.25 µM.

Q: And the CC50 (SK-MEL-28)?
A: The CC50 was 15.7 µM.

Q: What about the “TGI MEL-28” value (SK-MEL-28) of the same molecule?
A: The value was 5.15E−06.

Q: And the GI50 (LNCaP)?
A: Its GI50 is 4.3 µM.

Q: What about the CC50 (LNCaP) of the same molecule?
A: Its CC50 is 19.9 µM.

Q: What about the “TGI LN-caP” value (LNCaP) of the same molecule?
A: Its value is 9.26E−06.

Q: And the GI50 (IGROV-ET)?
A: Its GI50 is 3.87 µM.

Q: And the CC50 (IGROV-ET)?
A: Its CC50 is 26.7 µM.

Q: What about the “TGI IGROV-ET” value (IGROV-ET) of the same molecule?
A: The value was 1.10E−05.

Q: And the GI50 (LoVo-Dox)?
A: Its GI50 is 1.51 µM.

Q: What about the CC50 (LoVo-Dox) of the same molecule?
A: The CC50 was 26.7 µM.

Q: What about the “TGI LOVO-DOX” value (LoVo-Dox) of the same molecule?
A: The value was 7.07E−06.

Q: And the GI50 (IGROV-1)?
A: Its GI50 is 3.55 µM.

Q: And the CC50 (IGROV-1)?
A: The CC50 was 25.9 µM.

Q: And the “TGI IGROV” value (IGROV-1)?
A: The value was 9.60E−06.

Q: And the GI50 (SK-OV-3)?
A: Its GI50 is 2.05 µM.

Q: What about the CC50 (SK-OV-3) of the same molecule?
A: Its CC50 is 21.8 µM.

Q: What about the “TGI SKOV-3” value (SK-OV-3) of the same molecule?
A: The value was 6.88E−06.

Q: What about the GI50 (PANC-1) of the same molecule?
A: Its GI50 is 3.07 µM.

Q: And the CC50 (PANC-1)?
A: The CC50 was 24.6 µM.

Q: What about the “TGI PANC-1” value (PANC-1) of the same molecule?
A: The value was 8.70E−06.

Q: What about the GI50 (HT-29) of the same molecule?
A: The GI50 was 5.34 µM.

Q: And the CC50 (HT-29)?
A: Its CC50 is 26.7 µM.

Q: What about the “TGI HT-29” value (HT-29) of the same molecule?
A: The value was 1.66E−05.

Q: What about the GI50 (K-562) of the same molecule?
A: The GI50 was 7.26 µM.

Q: And the CC50 (K-562)?
A: Its CC50 is 26.7 µM.

Q: And the “TGI K-562” value (K-562)?
A: Its value is 1.59E−05.

Q: And the GI50 (LoVo)?
A: The GI50 was 1.54 µM.

Q: And the CC50 (LoVo)?
A: The CC50 was 26.7 µM.

Q: And the “TGI LOVO” value (LoVo)?
A: Its value is 6.99E−06.

Q: And the GI50 (SK-BR-3)?
A: Its GI50 is 4.35 µM.

Q: And the CC50 (SK-BR-3)?
A: Its CC50 is 21.3 µM.

Q: And the “TGI SK-BR-3” value (SK-BR-3)?
A: Its value is 9.69E−06.

— patent publication US7772241B2, “Variolin derivatives and their use as antitumor agents” (Pharma Mar S.A., priority 2001, dated 2010)
